Reference: publication PMC3283556, “The Activities of Current Antimalarial Drugs on the Life Cycle Stages of Plasmodium: A Comparative Study with Human and Rodent Parasites” (PLoS Medicine, 2012)
Entries after “also recorded” stand apart in the source; their conditions may differ. Where two headings read alike, the source gives them in different places.

Assays:
[1] = tested on: P. yoelii liver stage parasites (liver schizonts); test: P. yoelii liver stage assay in HepG2 cells (EEF immunofluorescence); type: cell-based, Plasmodium yoelii; conditions: for IC50: Plasmodium yoelii
Protocol: (§1) 7.5×10^3 HepG2 cells in 50 µl of medium (1.5×10^5 cells/ml) were seeded in 384 well plates (Aurora 384 IQ-EB Black/Clear Plates) 20–26 h prior to the actual infection. 2 h prior to infection, 50 nl of compound in DMSO (0.1% final DMSO concentration per well) were transferred with a PinTool (GNF Systems) into the assay plates (10 µM final concentration). P. yoelii sporozoites were freshly dissected from infected A. stephensi mosquito salivary glands and filtered twice with a 40-µm strainer. The HepG2 cells were then infected with 8×10^3 sporozoites per well. After infection and 1-h incubation at 37°C, the cultures were washed, new media and compound added, and further incubated with 5-fold increased concentration of penicillin/streptomycin for 48 h at 37°C before exoerythrocytic forms (EEFs) quantification of infected cells by immunofluorescence.
After washing with 1×PBS and fixation of the cells with 4% paraformaldehyde solution (EMS), membranes were permeabilised with 0.5% Triton-X-100 (Thermo Fisher Scientific) and EEFs were stained using a mouse polyclonal serum raised against the Plasmodium heat shock protein 70 (HSP70), an Alexa goat antimouse IgG, Fca-specific DyLight 649 secondary antibody (Invitrogen), and the Hoechst 33342 nucleic acid dye (Invitrogen). Stained EEFs were then quantified using the Opera Confocal High Content Screening system (PerkinElmer). Images were collected using a 20× magnification at a binning of 2 using a 365 Xeon arc lamp illumination to detect the nuclei and 635-nm laser line to excite DyLight649.
(§2) High-content imaging of infected HepG2-CD81 cells was performed as described in Meister et al.. Wells were analysed using a custom Acapella (PerkinElmer) script parameterized for this assay. In brief, images from fields inside the well were first discarded as out of focus when the intensity in the nuclear area was too low. Then hepatic cells were counted by detecting the nuclei labelled with Hoechst 33342 and parasites were segmented using the HSP70 immuno-labelling. Morphology-based (e.g., area, roundness) and intensity-based features were calculated for each object detected including the hepatocyte nuclei and the parasites. Parasitemia was set as the ratio between parasite number (Alexa fluor positive) and the hepatocyte nuclei count, determined at the same time.
(§3) When an infected mosquito bites a host, ∼100 sporozoites may be injected into the dermis from where they rapidly invade liver cells,[33]. This infective step represents the second bottleneck during transmission and therefore another potentially vulnerable point for intervention. In the absence of a practical liver stage assay measuring the formation of P. falciparum/P. vivax liver schizonts, an equivalent assay was developed in P. yoelii and used to assess the activity of the collection of molecules against this specific stage. Specifically, P. yoelii sporozoites were dissected from the salivary glands of infected mosquitoes and were allowed to invade human hepatocarcinoma cells expressing the CD81 protein. The development of the liver schizonts was monitored by immunofluorescence staining using an HSP70 antibody specific to the parasite (Figure 4A).
Figure 4 Validation and results of anti-infectives tested against P. yoelii liver stage parasites. (A) Opera-generated images from a time point experiment using a 20× objective lens. P. yoelii parasites (red) were visualized using a mouse polyclonal HSP70 antibody, and the HepG2 cells (green) were stained with Hoechst 33342 nucleic acid dye. […] (B) A dose response plot with atovaquone from data generated from the Opera imaging system. The median areas of compound-treated parasites were compared to untreated DMSO controls to determine the degree of inhibition.

Plasmodium oocysts = test: Oocyst development / sporogony, Plasmodium species not stated at the place; type: in vivo; conditions: Plasmodium; 10 μM; box linked to oocysts; read-out: Inhibition at 10 μM (oocysts, Figure 5)
Protocol: (§4) Membrane feeds were performed as described previously. Briefly, PbGFPcon-infected mouse blood was mixed with compounds, immediately placed into membrane feeders (39°C) and offered for 30 min to 80–100 overnight-starved A. stephensi (SDA 500 strain). After 7–9 d at 19°C/80%RH, mosquito midguts were dissected out. Midguts were fixed with paraformaldehyde and oocyst number was determined microscopically by semi-automated analysis as previously described.
Gametocyte cultures were produced according to the same protocol as the Pf exflagellation assay. Pooled gametocyte cultures were evenly divided between compounds in fresh medium and incubated at 37°C for 24 h. The parasite pellets were then resuspended in fresh RBCs and human serum treated with the compounds to a 50% haematocrit and immediately fed to mosquitoes as described above and then maintained at 27°C/60%RH for 10–12 d before dissection and counting. […]

[2] = tested on: P. falciparum mature gametocytes / male gamete exflagellation; test: P. falciparum exflagellation assay; type: cell-based, Plasmodium falciparum; conditions: for inhibition at 10 µM: Plasmodium falciparum
Protocol: After 24 h, exflagellation was triggered by a temperature decrease to ∼21°C and observed 20 min later under the microscope. Highly motile exflagellation centres were recorded for ∼50–150 adjacent fields of view and reported per 10,000 RBCs.
(§5) (A) Assays examined exflagellation (P. falciparum), ookinete formation (P. berghei), or oocyst formation (P. falciparum). All antimalarials were screened at 10 µM. (B) The biological content of the in vitro P. berghei ookinete assay spans gamete formation, fertilization, zygote development, and ookinete formation. […] (D) The in vitro P. falciparum exflagellation assay exposes mature gametocytes to antimalarials for 24 h before triggering exflagellation. […] All experiments in triplicate. (E) The in vivo P. falciparum oocyst assay differs from the P. berghei oocyst assay in that mature gametocytes were exposed to the antimalarials in culture for 24 h before feeding to mosquitoes.

HepG2 cells = test: Growth retardation of HepG2 cells; conditions: for IC50: Homo sapiens, HepG2, read-out: IC50 HepG2; for CI (cytotoxicity index): IC50 HepG2 compared to IC50 parasite
Protocol: as §1, §2, §3

[3] = tested on: P. berghei ookinete formation; test: P. berghei ookinete development assay; type: cell-based, Plasmodium berghei; conditions: for effect on ookinete formation: 10 µM; for IC50 / inhibition at 10 µM: Plasmodium berghei; for IC50: read-out: IC50 ookinete formation; for inhibition at 10 µM: read-out: Inhibition at 10 μM (ookinete, Figure 5)
Protocol: Compounds and P. berghei gametocyte-infected blood were dispensed in a 96-well plate containing ookinete medium. After 24 h at 19°C, Giemsa-stained ookinetes were counted under the microscope (×40) as previously described,[28].
as §5, with “Figure 3 The transmission-blocking potential of selected antimalarials in three bioassays that cover different phases of Plasmodium vector stage development. (A)” for “(A)”, “formation. Ookinete formation was insensitive to most of the antimalarials tested.” for “formation.”, “mosquitoes. […] NPC1161-B, lumefantrine, halofantrine, and mefloquine +RS isomer were also active. (n = 4–61 observations; average ± standard error of the mean [SEM]).” for “mosquitoes.”

[4] = tested on: P. berghei oocyst formation; test: Standard membrane feed assay, P. berghei oocysts in A. stephensi; type: in vivo, Plasmodium berghei; conditions: 10 µM
Protocol: as §4
Supplementary file pmed.1001169.s001.tif: Figure S1 The transmission-blocking potential of selected compounds against P. berghei in standard membrane feeding assays. All antimalarials were screened at 10 µM in triplicate in independent experiments. The biological content of this assay spans gamete formation through to occyst development all within the gut of the mosquito. […] (TIF) Click here for additional data file.

[5] = tested on: P. falciparum asexual blood stage parasites (strains NF54, D6, K1, W2, 7G8, TM90C2A, V1/S); test: [3H]-hypoxanthine incorporation growth inhibition assay, asexual blood stage; type: cell-based, Plasmodium falciparum; conditions: for IC50: Plasmodium falciparum
Protocol: In vitro antimalarial activity was measured using the [^3H]-hypoxanthine incorporation assay with various strains of P. falciparum obtained from MR4. Results were expressed as the concentration resulting in 50% inhibition (IC50).
The half-maximal inhibitory concentrations (IC50) were determined for each molecule (Table S2).
Figure 2 The potencies of selected antimalarials against asexual blood stages. Main classes of antimalarials were tested against the blood stage of seven Plasmodium falciparum strains in the [^3H]hypoxanthine incorporation assay as described in Vennerstrom et al.. The strains tested here (obtained from MR4) were two drug-sensitive strains NF54 and D6 and five drug-resistant strains: K1, resistant to chloroquine (CQ) and pyrimethamine (PYR), origin Thailand, carries mutations in genes pfmdr1, pfcrt, pfdhfr, pfdhps; W2, resistant to CQ, PYR, quinine, cycloguanil, and sulfadoxine, origin Vietnam; 7G8, resistant to CQ and PYR, origin Brazil; TM90C2A, resistant to CQ, PYR, and MFQ, origin Thailand; and V1/S, resistant to CQ, PYR and cycloguanil, origin Vietnam. Results are expressed as the concentration resulting in 50% growth inhibition (IC50).Values are means of ≥3 independent experiments. (A) Endoperoxides. (B) 4-AQs. (C) 8-AQs and amino alcohols. (D) Antifolates, antibiotics, and others.

[6] = HepG2, box linked to liver schizont, read-out: IC50 (liver schizont, Figure 5)
[7] = 10 µM, 24 h exposure of mature gametocytes
[8] = read-out: Inhibition at 10 μM (gametocytes/exflagellation, Figure 5)
[9] = HepG2, read-out: IC50 (liver schizont, Figure 5)
[10] = HepG2, read-out: IC50 liver stage

Molecule `C[C@H]1[C@@H](O)O[C@@H]2O[C@@]3(C)CC[C@H]4[C@H](C)CC[C@@H]1[C@@]24OO3` [DHA, dihydroartemisinin] has an IC50 [1, 6] of less than 1000 nM and an inhibition at 10 µM (Plasmodium oocysts) greater than 90%.

For `CC(C)(N)CNC(=O)C[C@H]1CC[C@]2(CC1)OO[C@]1(O2)C2CC3CC(C2)CC1C3` [OZ277], the “effect on exflagellation (words)” value [2, 7] was “inhibited exflagellation totally”, the inhibition at 10 µM ([2]; 10 μM, box linked to gametocytes/exflagellation, read-out: Inhibition at 10 μM (gametocytes/exflagellation, Figure 5)) was greater than 60% and the IC50 ([1]; HepG2, development of P. yoelii liver schizonts following infection of HepG2 cells, read-out: IC50 Parasite) was 1690 ± 1220 nM. The IC50 (HepG2 cells) was 7400 ± 5130 nM, the “CI (cytotoxicity index)” value (HepG2 cells) was 4.38 and the inhibition at 10 µM (Plasmodium oocysts) was greater than 90%.

For `CCCCC[C@@H]1CN[C@H](C(=O)N[C@@H]([C@H]2O[C@H](SC)[C@H](O)[C@@H](O)[C@H]2O)[C@H](C)Cl)C1` [cis-mirincamycin], the “effect on ookinete formation” value [3] was “enhancement of ookinete formation that was not statistically significant”.

For `C[C@@H]1C[C@@H]([C@H](O)CC2CC(=O)NC(=O)C2)C(=O)[C@@H](C)C1` [cycloheximide], the “effect on exflagellation (words)” value [2, 7] was “inhibited exflagellation totally; also recorded: Inhibition of exflagellation”, the inhibition at 10 µM [2, 8] was greater than 60% and the “effect on ookinete formation” value [3] was “strongly inhibited ookinete formation”. For the same molecule, the IC50 [3] was 25 nM, the inhibition at 10 µM [3] was greater than 80% and the “transmission-blocking effect on P. berghei oocysts (words)” value [4] was “most notable transmission-blocking activity”. The IC50 [1, 9] was less than 1000 nM, the IC50 ([1]; HepG2, read-out: IC50 Parasite) was 150 ± 10 nM and the IC50 [1, 10] was less than 200 nM. The “effect on growth of HepG2-CD81 cells” value (HepG2 cells) was “retarded the growth of HepG2-CD81 cells”, the IC50 (HepG2 cells) was 920 ± 290 nM and the “CI (cytotoxicity index)” value (HepG2 cells) was 6.13.

`O=CN(O)CCCP(=O)(O)O` [fosmidomycin] was tested, and the “effect on ookinete formation” value [3] was “enhancement of ookinete formation that was not statistically significant”.

In the case of `CCc1nc(N)nc(N)c1-c1ccc(Cl)cc1` [pyrimethamine], the IC50 ([5]; Erythrocyte, box linked to blood stage schizont, read-out: IC50 (erythrocyte schizont, Figure 5)) is reported as less than 20 nM, the “resistance / retention of potency against resistant strains” value ([5]; drug-resistant strains) is reported as “Resistance to pyrimethamine was verified in all drug-resistant strains” and the inhibition at 10 µM ([2]; read-out: inhibition of exflagellation, 10 µM, 24 h exposure of mature gametocytes) is reported as greater than 80%. The “effect on ookinete formation” value [3] was “strongly inhibited ookinete formation”, the inhibition at 10 µM ([3]; 10 μM, box linked to ookinete) was greater than 80% and the “transmission-blocking effect on P. berghei oocysts (words)” value [4] was “most notable transmission-blocking activity”. For the same molecule, the IC50 [1, 6] was less than 1000 nM, the IC50 ([1]; HepG2, dose response, median parasite area (Opera), read-out: IC50 liver stage) was less than 10 nM and the inhibition at 10 µM (Plasmodium oocysts) was greater than 90%.

For `COc1cc(C)c2c(Oc3cccc(C(F)(F)F)c3)c(OC)cc(NC(C)CCCN)c2n1` (centres unmarked) [tafenoquine], the IC50 ([5]; strain 7G8) was roughly 50 nM, the IC50 ([5]; strain NF54) was roughly 500 nM and the “effect on ookinete formation” value [3] was “enhancement of ookinete formation that was not statistically significant”.

In the case of `C=C(NC(=O)C(=C)NC(=O)c1csc(C2=N[C@@H]3c4csc(n4)[C@H]4NC(=O)c5csc(n5)[C@H]([C@](C)(O)[C@@H](C)O)NC(=O)[C@H]5CSC(=N5)/C(=C/C)NC(=O)[C@H]([C@@H](C)O)NC(=O)c5csc(n5)[C@]3(CC2)NC(=O)[C@H](C)NC(=O)C(=C)NC(=O)[C@H](C)NC(=O)[C@H]([C@@H](C)CC)N[C@@H]2C=Cc3c([C@H](C)O)cc(nc3[C@H]2O)C(=O)O[C@@H]4C)n1)C(N)=O` [thiostrepton], the “effect on exflagellation (words)” value [2, 7] is reported as “Inhibition of exflagellation”, the inhibition at 10 µM ([2]; 24 h, read-out: inhibition of exflagellation) is reported as greater than 80% and the inhibition at 10 µM [2, 8] is reported as greater than 60%. The “effect on ookinete formation” value [3] was “strongly inhibited ookinete formation”, the IC50 [3] was 8000 nM and the inhibition at 10 µM [3] was greater than 80%. It also gave an IC50 [1, 9] of less than 1000 nM, an IC50 ([1]; HepG2, read-out: IC50 Parasite) of 180 ± 50 nM and an IC50 [1, 10] of less than 200 nM. The “potency range against liver stages” value ([1]; dose response) was “submicromolar potencies”, the “effect on growth of HepG2-CD81 cells” value (HepG2 cells) was “retarded the growth of HepG2-CD81 cells” and the IC50 (HepG2 cells) was 180 ± 20 nM. For the same molecule, the “CI (cytotoxicity index)” value (HepG2 cells) was 1.0.
